Counter-ions that a name gives are not always drawn. Like-named read-outs stand apart in the source and are kept apart here.
Tests used:
[1] = biological target: T1, human cannabinoid CB2 receptor (Homo sapiens, UniProt P34972); assay: Cannabinoid CB2 receptor agonist activity, yeast (Saccharomyces cerevisiae) cells expressing the receptor, FDGlu fluorescence; format: cell-based; conditions: for Emax: read-out: efficacy (Emax relative to HU210) at the cloned human cannabinoid CB2 receptor
T1 construct: expressed in transfected cells; host or cells: Saccharomyces cerevisiae strain MMY23 (cassette integrated at the ura3 locus; chimeric Gpa1/Gαi3)
T1 sequence (P34972 whole entry): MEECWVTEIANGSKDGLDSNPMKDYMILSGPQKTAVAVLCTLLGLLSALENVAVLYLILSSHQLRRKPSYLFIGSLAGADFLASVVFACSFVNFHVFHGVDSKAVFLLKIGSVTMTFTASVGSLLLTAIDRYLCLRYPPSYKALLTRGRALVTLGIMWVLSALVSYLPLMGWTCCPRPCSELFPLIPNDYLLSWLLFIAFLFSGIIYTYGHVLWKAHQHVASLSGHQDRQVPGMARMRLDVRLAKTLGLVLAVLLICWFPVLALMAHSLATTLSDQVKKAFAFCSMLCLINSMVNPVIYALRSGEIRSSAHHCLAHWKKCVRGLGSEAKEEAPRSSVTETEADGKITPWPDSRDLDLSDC
Protocol: The cannabinoid CB2 receptor agonist activity of the compounds of formula (I) was determined in accordance with the following experimental method.
(§1) Yeast (Saccharomyces cerevisiae) cells expressing the human cannabinoid CB2 receptor were generated by integration of an expression cassette into the ura3 chromosomal locus of yeast strain MMY23. This cassette consisted of DNA sequence encoding the human CB2 receptor flanked by the yeast GPD promoter to the 5′ end of CB2 and a yeast transcriptional terminator sequence to the 3′ end of CB2. MMY23 expresses a yeast/mammalian chimeric G-protein alpha subunit in which the C-terminal 5 amino acids of Gpa1 are replaced with the C-terminal 5 amino acids of human Gαi3 (as described in Brown et al. (2000), Yeast 16:11-22). Cells were grown at 30° C. in liquid Synthetic Complete (SC) yeast media (Guthrie and Fink (1991), Methods in Enzymology, Vol. 194) lacking uracil, tryptophan, adenine and leucine to late logarithmic phase (approximately 6 OD600/ml).
(§2) Agonists were prepared as 10 mM stocks in DMSO. EC50 values (the concentration required to produce 50% maximal response) were estimated using dilutions of between 3- and 5-fold (BiomekFX, Beckman) into DMSO. Agonist solutions in DMSO (1% final assay volume) were transferred into black, clear bottom, microtitre plates from NUNC (96- or 384-well). Cells were suspended at a density of 0.2 OD600/ml in SC media lacking histidine, uracil, tryptophan, adenine and leucine and supplemented with 10 mM 3-aminotriazole, 0.1M sodium phosphate pH 7.0, and 20M fluorescein di-β-D-glucopyranoside (FDGlu). This mixture (50 ul per well for 384-well plates, 200 ul per well for 96-well plates) was added to agonist in the assay plates (Multidrop 384, Labsystems). After incubation at 30° C. for 24 hours, fluorescence resulting from degradation of FDGlu to fluorescein due to exoglucanase, an endogenous yeast enzyme produced during agonist-stimulated cell growth, was determined using a Spectrofluor microtitre plate reader (Tecan; excitation wavelength: 485 nm; emission wavelength: 535 nm). Fluorescence was plotted against compound concentration and iteratively curve fitted using a four parameter fit to generate a concentration effect value. Efficacy (Emax) was calculated from the equation
Emax=Max[compound X]−Min[compound X]/Max[HU210]−Min[HU210]×100%
(§3) where Max[compound X] and Min[compound X] are the fitted maximum and minimum respectively from the concentration effect curve for compound X, and Max[HU210] and Min[HU210] are the fitted maximum and minimum respectively from the concentration effect curve for (6aR,10aR)-3-1,1′-Dimethylheptyl)-6a,7,10,10a-tetrahydro-1-hydroxy-6,6-dimethyl-6H-dibenzo[b,d]pyran-9-methanol (HU210; available from Tocris). Equieffective molar ratio (EMR) values were calculated from the equation
Where EC50[compound X] is the EC50 of compound X and EC50[HU210] is the EC50 of HU210.

[2] = biological target: T2, human cannabinoid CB1 receptor (Homo sapiens, UniProt P21554); assay: Cannabinoid CB1 receptor agonist activity, yeast (Saccharomyces cerevisiae) cells expressing the receptor, FDGlu fluorescence; format: cell-based; conditions: for Emax: read-out: efficacy (Emax relative to HU210) at the cloned human CB1 receptor
T2 construct: expressed in transfected cells; host or cells: Saccharomyces cerevisiae strain MMY23 (cassette integrated at the ura3 locus; chimeric Gpa1/Gαi3)
T2 sequence (P21554 whole entry): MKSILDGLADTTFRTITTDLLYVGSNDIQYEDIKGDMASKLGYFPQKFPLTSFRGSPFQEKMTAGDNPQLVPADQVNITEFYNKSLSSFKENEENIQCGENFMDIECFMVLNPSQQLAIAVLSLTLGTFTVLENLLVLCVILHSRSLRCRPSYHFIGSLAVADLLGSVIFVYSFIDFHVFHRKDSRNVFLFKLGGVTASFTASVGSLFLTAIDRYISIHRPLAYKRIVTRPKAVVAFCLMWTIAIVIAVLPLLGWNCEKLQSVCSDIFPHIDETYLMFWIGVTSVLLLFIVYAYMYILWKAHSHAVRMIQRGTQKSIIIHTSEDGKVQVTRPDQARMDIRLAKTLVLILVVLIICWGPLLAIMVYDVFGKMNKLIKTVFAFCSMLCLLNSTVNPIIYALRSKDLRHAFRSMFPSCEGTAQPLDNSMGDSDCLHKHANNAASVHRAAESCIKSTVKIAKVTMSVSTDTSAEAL
Protocol: The cannabinoid CB1 receptor agonist activity of the compounds of formula (I) was determined in accordance with the following experimental method.
as §1, with “cannabinoid CB1” for “cannabinoid CB2”, “human CB1” for “human CB2”, “of CB 1” for “of CB2”, “of CB1.” for “of CB2.”, “of Gpal” for “of Gpa1”
as §2, with “20 μM” for “20M”, “equation […]” for “equation”
as §3, with “(6aR,10aR)-3-(1,1′-Dimethylheptyl)-6a,7,10,10a-tetrahydro-1 hydroxy-6,6-dimethyl-6H-dibenzo[b,d]pyran-9-methanol” for “(6aR,10aR)-3-1,1′-Dimethylheptyl)-6a,7,10,10a-tetrahydro-1-hydroxy-6,6-dimethyl-6H-dibenzo[b,d]pyran-9-methanol”, “equation […]” for “equation”

[3] = yeast agonist assay, read-out: EC50 at the cloned human cannabinoid CB2 receptor

EC50 [1, 3] [nM]	Emax ([1]; yeast agonist assay) [%]	SMILES	Emax [1] [%]	also measured
–	–	CC(NCC1CCOCC1)c1cnc(Nc2ccc(Cl)cc2Cl)nc1C(F)(F)F (stereo not shown) [Example 91, (2,4-Dichlorophenyl)-(5-{1-[(tetrahydro-pyran-4-ylmethyl)-amino]-ethyl}-4-trifluoromethyl-pyrimidin-2-yl)-amine]	> 50	EC50 [1]: < 300 nM; EC50 [2]: 300 to 1000 nM; Emax [2]: 50 to 100%
< 300	> 50	CC(C)c1nc(Nc2cccc(Cl)c2)ncc1CNCC1CCCC1 [Example 8, (3-Chloro-phenyl)-{5-[(cyclopentylmethyl-amino)-methyl]-4-isopropyl-pyrimidin-2-yl}-amine hydrochloride]	–	–
< 300	> 50	Fc1cccc(Nc2ncc(CNCC3CCC3)c(C(F)(F)F)n2)c1 [Example 37, (3-Fluorophenyl)-{5-[(cyclobutylmethylamino)-methyl]-4-trifluoromethyl-pyrimidin-2-yl}-amine,formate]	–	–
< 300	> 50	FC(F)(F)c1nc(Nc2cccc(Cl)c2)ncc1CNC1CCOCC1 [Example 16, (3-Chlorophenyl)-{5-[(tetrahydro-pyran-4-ylamino)-methyl]-4-trifluoromethyl-pyrimidin-2-yl}-amine, formate]	–	–
< 300	> 50	FC(F)(F)c1nc(Nc2cccc(Cl)c2)ncc1CNCC1CC1 [Example 25, (3-Chlorophenyl)-{5-[(cyclopropylmethylamino)-methyl]-4-trifluoromethyl-pyrimidin-2-yl}-amine,formate]	–	–
< 300	> 50	COCCNCc1cnc(Nc2ccc(Cl)cc2Cl)nc1C(F)(F)F [Example 33, (2,4-Dichlorophenyl)-{5-[(2-methoxy-ethylamino)-methyl]-4-trifluoromethyl-pyrimidin-2-yl}-amine]	–	–
< 300	> 50	Clc1cccc(Nc2ncc(CNC3CCC3)c(C3CC3)n2)c1 [Example 1, (3-Chloro-phenyl)-(5-cyclobutylaminomethyl-4-cyclopropyl-pyrimidin-2-yl)-amine]	–	–
< 300	> 50	CC(C)(C)c1nc(Nc2cccc(Cl)c2)ncc1CN1CCOCC1 [Example 97, (4-tert-Butyl-5-morpholin-4-ylmethyl-pyrimidin-2-yl)-(3-chloro-phenyl)-amine hydrochloride]	–	–
< 300	> 50	CC(C)(C)c1nc(Nc2cccc(Cl)c2)ncc1CNCC1CC1 [Example 103, (4-tert-Butyl-5-[(cyclopropylmethyl-amino)-methyl]-pyrimidin-2-yl}-(3-chloro-phenyl)-aminehydrocholoride]	–	–
–	–	CC(C)(C)CNCc1cnc(Nc2ccc(Cl)cc2Cl)nc1C(F)(F)F [Example 32, (2,4-Dichlorophenyl)-{5-[(2,2-dimethylpropylamino)-methyl]-4-trifluoromethyl-pyrimidin-2-yl}-amine]	> 50	EC50 [1]: < 300 nM
–	–	FC(F)(F)c1nc(Nc2ccc(Cl)cc2Cl)ncc1CN1CCOCC1 [Example 35, (2,4-Dichlorophenyl)-(5-morpholin-4-ylmethyl-4-trifluoromethyl-pyrimidin-2-yl)-amine]	> 50	EC50 [1]: < 300 nM

SMILES	EC50 [1, 3] [nM]	Emax ([1]; yeast agonist assay) [%]	Emax [1] [%]	also measured
CN(Cc1cnc(Nc2cccc(Cl)c2)nc1C(F)(F)F)CC1CCOCC1 [Example 42, (3-Chlorophenyl)-(5-{[methyl-(tetrahydro-pyran-4-ylmethyl)-amino]-methyl}-4-trifluoromethyl-pyrimidin-2-yl)-amine]	300 to 1000	–	> 50	–
FC(F)(F)c1nc(Nc2ccc(Cl)cc2Cl)ncc1CN1CCCC1 [Example 53, (2,4-Dichlorophenyl)-(5-pyrrolidin-1-ylmethyl-4-trifluoromethyl-pyrimidin-2-yl)-amine]	300 to 1000	–	> 50	–
FC(F)(F)c1nc(Nc2cccc(Cl)c2)ncc1CNCC1CCCCC1 [Example 12, (3-Chlorophenyl)-{[5-(cyclohexylmethylamino)-methyl]-4-trifluoromethyl-pyrimidin-2yl}-amine]	300 to 1000	–	> 50	–
CCC(C)NCc1cnc(Nc2cccc(Cl)c2)nc1C(F)(F)F (stereo not shown) [Example 48, [5-(sec-Butylamino-methyl)-4-trifluoromethyl-pyrimidin-2-yl]-(3-chloro-phenyl)-amine, formate]	300 to 1000	–	> 50	–
O=S1(=O)CCC(NCc2cnc(Nc3cccc(Cl)c3)nc2C(F)(F)F)CC1 [Example 26, (3-Chlorophenyl)-{5-[(1,1-dioxo-hexahydro-1l^6-thiopyran-4-ylamino)-methyl]-4-trifluoromethyl-pyrimidin-2-yl}-amine, formate]	< 300	–	> 50	–
CC(NCC1CCCCC1)c1cnc(Nc2cccc(Cl)c2)nc1C(F)(F)F (stereo not shown) [Example 89, (3-Chlorophenyl)-{5-[1-(cyclohexylmethyl-amino)-ethyl]-4-trifluoromethyl-pyrimidin-2-yl}-amine, formate]	< 300	> 50	–	Emax [2]: 50 to 100%; EC50 ([2]; yeast agonist assay, read-out: EC50 at the cloned human CB1 receptor): 300 to 1000 nM
Fc1cc(CNCc2cnc(Nc3cccc(Cl)c3)nc2C(F)(F)F)ccn1 [Example 96, (3-Chlorophenyl)-(5-{[(2-fluoropyridin-4-ylmethyl)amino]-methyl}-4-trifluoromethyl-pyrimidin-2yl}-amine, formate]	300 to 1000	–	> 50	–

— patent US20080261977A1, “Pyrimidine Derivatives as Cannabinoid Receptor Modulators” (priority 2004, published 2008)
